Among the data in ChEMBL document CHEMBL5653631, “A Potent and Selective ULK1 Inhibitor Suppresses Autophagy and Sensitizes Cancer Cells to Nutrient Stress” (iScience, 2018) are fold change (FC) and inhibition values, retold here.

What is called inhibition is the percentage by which the read-out fell short of the control.

In assay [1] the target is Serine/threonine-protein kinase N1 (Homo sapiens) (UniProt Q16512). The assay can be described thus: Inhibition of human recombinant PKN1 at 40 nM related to control ULK1.
The target of assay [2] is T1, Serine/threonine-protein kinase DCLK3 (Homo sapiens) (UniProt Q9C098).
T1 sequence (whole entry): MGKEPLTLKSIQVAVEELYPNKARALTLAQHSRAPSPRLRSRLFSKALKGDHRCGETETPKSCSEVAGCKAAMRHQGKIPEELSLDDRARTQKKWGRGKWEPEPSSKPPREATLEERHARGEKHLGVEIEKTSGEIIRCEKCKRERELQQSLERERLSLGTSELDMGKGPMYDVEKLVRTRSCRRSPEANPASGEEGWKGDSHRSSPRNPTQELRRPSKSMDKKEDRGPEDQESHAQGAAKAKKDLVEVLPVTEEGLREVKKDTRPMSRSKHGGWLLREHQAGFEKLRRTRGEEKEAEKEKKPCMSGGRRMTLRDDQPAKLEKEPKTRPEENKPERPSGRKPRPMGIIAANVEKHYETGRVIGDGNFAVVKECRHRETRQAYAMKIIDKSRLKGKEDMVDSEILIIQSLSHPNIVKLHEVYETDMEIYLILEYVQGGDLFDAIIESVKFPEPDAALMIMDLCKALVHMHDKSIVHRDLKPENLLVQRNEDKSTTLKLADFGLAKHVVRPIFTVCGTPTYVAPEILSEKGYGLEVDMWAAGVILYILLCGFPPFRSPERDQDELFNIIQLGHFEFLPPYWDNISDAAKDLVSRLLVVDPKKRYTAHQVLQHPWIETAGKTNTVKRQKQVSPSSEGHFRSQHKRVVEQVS
The assay can be described thus: Inhibition of human recombinant DCAMKL3 at 500 nM related to control ULK1.

In assay [3] the target is Tyrosine-protein kinase SYK (Homo sapiens) (UniProt P43405). The assay can be described thus: Inhibition of human recombinant SYK at 500 nM related to control ULK1.
For assay [4], the target named is T2, Tyrosine-protein kinase TXK (Homo sapiens) (UniProt P42681).
T2 sequence (whole entry): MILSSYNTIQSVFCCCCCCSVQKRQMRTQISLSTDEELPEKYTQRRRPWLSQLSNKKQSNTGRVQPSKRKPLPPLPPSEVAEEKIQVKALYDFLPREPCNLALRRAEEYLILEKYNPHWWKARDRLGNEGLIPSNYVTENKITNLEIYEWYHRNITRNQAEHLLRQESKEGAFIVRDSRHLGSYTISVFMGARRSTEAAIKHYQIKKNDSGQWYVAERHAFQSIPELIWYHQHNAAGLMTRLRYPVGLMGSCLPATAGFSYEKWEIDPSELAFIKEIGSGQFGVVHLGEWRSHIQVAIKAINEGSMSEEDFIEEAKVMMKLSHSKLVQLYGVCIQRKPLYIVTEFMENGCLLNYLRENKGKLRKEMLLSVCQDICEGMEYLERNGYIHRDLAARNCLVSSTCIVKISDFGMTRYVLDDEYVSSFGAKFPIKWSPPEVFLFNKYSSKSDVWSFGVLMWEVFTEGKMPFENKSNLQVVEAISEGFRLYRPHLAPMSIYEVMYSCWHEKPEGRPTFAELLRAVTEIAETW
As to the kind of experiment: Inhibition of human recombinant TXK at 500 nM related to control ULK1.

For assay [5], the target named is Serine/threonine-protein kinase 38-like (Homo sapiens) (UniProt Q9Y2H1). The assay can be described thus: Inhibition of human recombinant NDR2 at 15 nM in presence of ATP by radiometric assay relative to control.
Assay [6] deals with T3, TGF-beta receptor type-1 (Homo sapiens) (UniProt P36897).
T3 sequence (whole entry): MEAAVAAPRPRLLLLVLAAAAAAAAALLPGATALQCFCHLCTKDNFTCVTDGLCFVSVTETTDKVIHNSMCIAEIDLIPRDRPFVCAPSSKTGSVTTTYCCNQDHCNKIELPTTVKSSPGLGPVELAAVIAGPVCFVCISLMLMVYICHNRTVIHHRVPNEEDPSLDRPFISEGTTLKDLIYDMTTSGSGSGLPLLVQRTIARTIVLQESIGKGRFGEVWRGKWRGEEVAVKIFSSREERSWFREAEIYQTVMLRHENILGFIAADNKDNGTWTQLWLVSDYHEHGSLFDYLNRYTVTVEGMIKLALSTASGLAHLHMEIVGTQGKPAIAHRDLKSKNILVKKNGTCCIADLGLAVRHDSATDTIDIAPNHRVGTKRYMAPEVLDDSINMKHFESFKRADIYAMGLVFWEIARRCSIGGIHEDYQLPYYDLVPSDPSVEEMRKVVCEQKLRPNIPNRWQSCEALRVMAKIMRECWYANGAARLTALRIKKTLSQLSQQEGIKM
The assay can be described thus: Inhibition of human recombinant TGFbR1 at 15 nM related to control ULK1.

Serine/threonine-protein kinase N1 (Homo sapiens), sequence (Q16512 2-942 limits assumed): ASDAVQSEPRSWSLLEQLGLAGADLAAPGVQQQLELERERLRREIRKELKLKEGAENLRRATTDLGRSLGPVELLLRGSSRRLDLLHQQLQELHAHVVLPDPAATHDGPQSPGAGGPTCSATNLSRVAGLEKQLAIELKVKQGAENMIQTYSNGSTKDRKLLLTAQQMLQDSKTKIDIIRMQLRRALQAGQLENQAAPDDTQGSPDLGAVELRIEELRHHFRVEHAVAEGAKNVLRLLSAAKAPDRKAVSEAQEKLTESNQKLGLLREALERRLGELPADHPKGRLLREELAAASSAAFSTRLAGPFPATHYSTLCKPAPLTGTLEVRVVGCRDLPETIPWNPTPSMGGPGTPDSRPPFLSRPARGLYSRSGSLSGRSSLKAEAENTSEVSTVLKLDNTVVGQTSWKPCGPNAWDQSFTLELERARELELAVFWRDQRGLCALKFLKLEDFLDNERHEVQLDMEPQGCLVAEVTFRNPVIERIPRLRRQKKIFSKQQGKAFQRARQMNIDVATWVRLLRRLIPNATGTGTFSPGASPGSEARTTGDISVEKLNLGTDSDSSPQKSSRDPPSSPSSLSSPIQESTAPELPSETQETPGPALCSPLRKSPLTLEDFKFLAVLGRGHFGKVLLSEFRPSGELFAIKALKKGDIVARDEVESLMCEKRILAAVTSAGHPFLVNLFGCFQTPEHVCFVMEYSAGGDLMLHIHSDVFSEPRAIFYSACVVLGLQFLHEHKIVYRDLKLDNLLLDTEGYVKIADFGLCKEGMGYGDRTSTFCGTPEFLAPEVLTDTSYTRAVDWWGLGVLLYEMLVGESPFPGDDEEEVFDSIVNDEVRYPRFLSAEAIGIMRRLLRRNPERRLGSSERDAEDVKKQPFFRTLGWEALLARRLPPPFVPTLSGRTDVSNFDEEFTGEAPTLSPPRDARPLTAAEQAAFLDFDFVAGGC
Serine/threonine-protein kinase 38-like (Homo sapiens), sequence (Q9Y2H1 2-464 limits assumed): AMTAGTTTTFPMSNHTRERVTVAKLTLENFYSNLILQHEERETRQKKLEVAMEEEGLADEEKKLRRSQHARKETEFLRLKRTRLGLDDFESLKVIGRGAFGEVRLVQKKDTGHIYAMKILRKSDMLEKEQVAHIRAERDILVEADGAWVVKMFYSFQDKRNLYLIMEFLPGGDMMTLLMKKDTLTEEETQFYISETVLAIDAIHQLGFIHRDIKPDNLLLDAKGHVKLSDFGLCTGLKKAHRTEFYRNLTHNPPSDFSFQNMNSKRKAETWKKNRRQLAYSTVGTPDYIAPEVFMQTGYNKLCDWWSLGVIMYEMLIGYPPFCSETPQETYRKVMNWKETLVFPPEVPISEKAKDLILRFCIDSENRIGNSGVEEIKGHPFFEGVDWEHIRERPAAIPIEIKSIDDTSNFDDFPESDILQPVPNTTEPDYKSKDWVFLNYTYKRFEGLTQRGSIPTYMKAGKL

With `O=C(N[C@@H](C1CC1)C(F)(F)F)c1cc(-c2cnn3cc(-c4ccc(F)cc4)cnc23)cs1`, the fold change (FC) in assay [1] came out at 0.

On to `CNC(=O)c1ccccc1Oc1nc(Nc2cc(OC)c(OC)c(OC)c2)ncc1Br`, for which the fold change (FC) was 0 in assay [2], 0 in assay [3] and 0.23 in assay [4].

For the molecule `CC(C)[C@H](NC(=O)c1cc(-c2cnn3cc(-c4ccc(OCCN5CCCCC5)cc4)cnc23)cs1)C(F)(F)F`, the inhibition in assay [5] is 2%. For the same molecule, in assay [6], the fold change (FC) came out at 0.05.
